Assay results reported in patent US20250059171A1 (Hoffmann-La Roche Inc., priority 2021, published 2025).

Assays:
SARS-CoV-2 3CLpro = SARS-CoV-2 3CLpro (Severe acute respiratory syndrome coronavirus 2, UniProt P0DTD1); experiment: biochemical
HCoV-229E 3CLpro = HCoV-229E 3CLpro (Human coronavirus 229E, UniProt P0C6X1); experiment: HCoV-229E 3CLpro inhibition assay (FRET); type: biochemical
MERS-CoV 3CLpro = MERS-CoV 3CLpro (Middle East respiratory syndrome-related coronavirus, UniProt K9N7C7); experiment: biochemical
SARS-CoV 3CLpro = SARS-CoV 3CLpro (Severe acute respiratory syndrome coronavirus, UniProt P0C6X7); experiment: biochemical

HCoV-229E 3CLpro, sequence (P0C6X1 2966-3267): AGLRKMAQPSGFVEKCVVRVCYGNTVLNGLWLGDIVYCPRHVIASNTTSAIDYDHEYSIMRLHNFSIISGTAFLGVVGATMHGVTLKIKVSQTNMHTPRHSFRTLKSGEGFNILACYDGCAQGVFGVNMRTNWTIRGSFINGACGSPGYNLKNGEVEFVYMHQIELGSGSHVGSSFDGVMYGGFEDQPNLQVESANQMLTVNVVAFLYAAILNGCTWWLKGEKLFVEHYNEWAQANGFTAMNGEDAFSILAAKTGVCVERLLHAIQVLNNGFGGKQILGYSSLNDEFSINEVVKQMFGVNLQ
MERS-CoV 3CLpro, sequence (K9N7C7 3248-3553): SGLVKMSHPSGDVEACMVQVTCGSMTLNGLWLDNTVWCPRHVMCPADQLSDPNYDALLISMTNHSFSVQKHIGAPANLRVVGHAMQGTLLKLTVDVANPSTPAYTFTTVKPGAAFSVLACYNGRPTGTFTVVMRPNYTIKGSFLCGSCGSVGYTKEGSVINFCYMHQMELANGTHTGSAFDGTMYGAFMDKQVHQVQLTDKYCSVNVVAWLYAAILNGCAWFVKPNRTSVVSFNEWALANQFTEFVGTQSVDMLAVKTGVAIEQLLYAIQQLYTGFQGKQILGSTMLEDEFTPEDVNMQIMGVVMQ

CCC(C)(C)[C@H](NC(=O)C1CC1)C(=O)N1C[C@@H]2CCC[C@@H]2[C@H]1C(=O)NN(C[C@@H]1CCCNC1=O)C(=O)[C@H](F)Cl [Example 167a, N-[(1S)-1-[(3S,3aS,6aR)-3-[[[(2R)-2-chloro-2-fluoro-acetyl]-[[(3S)-2-oxo-3-piperidyl]methyl]amino]carbamoyl]-3,3a,4,5,6,6a-hexahydro-1H-cyclopenta[c]pyrrole-2-carbonyl]-2,2-dimethyl-butyl]cyclopropanecarboxamide]
IC50 (SARS-CoV-2 3CLpro): 10 nM | IC50 (HCoV-229E 3CLpro): 53 nM | IC50 (MERS-CoV 3CLpro): 169 nM | IC50 (SARS-CoV 3CLpro): 15 nM

CCC(C)(C)[C@H](NC(=O)C1CC1)C(=O)N1C[C@@H]2CCC[C@@H]2[C@H]1C(=O)NN(C[C@H]1CCCNC1=O)C(=O)[C@H](F)Cl [Example 167b, N-[(1S)-1-[(3S,3aS,6aR)-3-[[[(2R)-2-chloro-2-fluoro-acetyl]-[[(3R)-2-oxo-3-piperidyl]methyl]amino]carbamoyl]-3,3a,4,5,6,6a-hexahydro-1H-cyclopenta[c]pyrrole-2-carbonyl]-2,2-dimethyl-butyl]cyclopropanecarboxamide]
IC50 (SARS-CoV-2 3CLpro): 19 nM | IC50 (HCoV-229E 3CLpro): 210 nM | IC50 (MERS-CoV 3CLpro): 1630 nM | IC50 (SARS-CoV 3CLpro): 41 nM

CCC(C)(C)[C@H](NC(=O)C1CC1)C(=O)N1CC(C)(C)C[C@H]1C(=O)NN(C[C@@H]1CCCNC1=O)C(=O)[C@H](F)Cl [Example 168a, N-[(1S)-1-[(2S)-2-[[[(2R)-2-chloro-2-fluoro-acetyl]-[[(3S)-2-oxo-3-piperidyl]methyl]amino]carbamoyl]-4,4-dimethyl-pyrrolidine-1-carbonyl]-2,2-dimethyl-butyl]cyclopropanecarboxamide]
IC50 (SARS-CoV-2 3CLpro): 11 nM | IC50 (HCoV-229E 3CLpro): 104 nM | IC50 (MERS-CoV 3CLpro): 290 nM | IC50 (SARS-CoV 3CLpro): 16 nM

CCC(C)(C)[C@H](NC(=O)C1CC1)C(=O)N1CC(C)(C)C[C@H]1C(=O)NN(C[C@H]1CCCNC1=O)C(=O)[C@H](F)Cl [Example 168b, N-[(1S)-1-[(2S)-2-[[[(2R)-2-chloro-2-fluoro-acetyl]-[[(3R)-2-oxo-3-piperidyl]methyl]amino]carbamoyl]-4,4-dimethyl-pyrrolidine-1-carbonyl]-2,2-dimethyl-butyl]cyclopropanecarboxamide]
IC50 (SARS-CoV-2 3CLpro): 100 nM | IC50 (HCoV-229E 3CLpro): 219 nM | IC50 (MERS-CoV 3CLpro): 2110 nM | IC50 (SARS-CoV 3CLpro): 185 nM

CCC(C)(C)[C@H](NC(=O)C1CC1)C(=O)N1C[C@H]2[C@@H]([C@H]1C(=O)NN(C[C@@H]1CCCNC1=O)C(=O)[C@H](F)Cl)C2(C)C [Example 169a, N-[(1S)-1-[(1R,2S,5S)-2-[[[(2R)-2-chloro-2-fluoro-acetyl]-[[(3S)-2-oxo-3-piperidyl]methyl]amino]carbamoyl]-6,6-dimethyl-3-azabicyclo[3.1.0]hexane-3-carbonyl]-2,2-dimethyl-butyl]cyclopropanecarboxamide]
IC50 (SARS-CoV-2 3CLpro): 9 nM | IC50 (HCoV-229E 3CLpro): 56 nM | IC50 (MERS-CoV 3CLpro): 118 nM | IC50 (SARS-CoV 3CLpro): 20 nM

CC[C@H](C)[C@H](NC(=O)C1(F)CC1)C(=O)N1C[C@@H]2CCC[C@@H]2[C@H]1C(=O)NN(C[C@@H]1CCCNC1=O)C(=O)[C@H](F)Cl [Example 170a, N-[(1S,2S)-1-[(3S,3aS,6aR)-3-[[[(2R)-2-chloro-2-fluoro-acetyl]-[[(3S)-2-oxo-3-piperidyl]methyl]amino]carbamoyl]-3,3a,4,5,6,6a-hexahydro-1H-cyclopenta[c]pyrrole-2-carbonyl]-2-methyl-butyl]-1-fluoro-cyclopropanecarboxamide]
IC50 (SARS-CoV-2 3CLpro): 16 nM | IC50 (HCoV-229E 3CLpro): 107 nM | IC50 (MERS-CoV 3CLpro): 276 nM | IC50 (SARS-CoV 3CLpro): 25 nM

CCC(CC)[C@H](NC(=O)C1CC1)C(=O)N1C[C@@H]2CCC[C@@H]2[C@H]1C(=O)NN(C[C@@H]1CCCNC1=O)C(=O)[C@H](F)Cl [Example 171a, N-[(1S)-1-[(3S,3aS,6aR)-3-[[[(2R)-2-chloro-2-fluoro-acetyl]-[[(3S)-2-oxo-3-piperidyl]methyl]amino]carbamoyl]-3,3a,4,5,6,6a-hexahydro-1H-cyclopenta[c]pyrrole-2-carbonyl]-2-ethyl-butyl]cyclopropanecarboxamide]
IC50 (SARS-CoV-2 3CLpro): 8 nM | IC50 (HCoV-229E 3CLpro): 94 nM | IC50 (MERS-CoV 3CLpro): 130 nM | IC50 (SARS-CoV 3CLpro): 17 nM

CCC(CC)[C@H](NC(=O)C1CC1)C(=O)N1C[C@H]2[C@@H]([C@H]1C(=O)NN(C[C@@H]1CCCNC1=O)C(=O)[C@H](F)Cl)C2(C)C [Example 172, N-[(1S)-1-[(1R,2S,5S)-2-[[[(2R)-2-chloro-2-fluoro-acetyl]-[[(3S)-2-oxo-3-piperidyl]methyl]amino]carbamoyl]-6,6-dimethyl-3-azabicyclo[3.1.0]hexane-3-carbonyl]-2-ethyl-butyl]cyclopropanecarboxamide]
IC50 (SARS-CoV-2 3CLpro): 17 nM | IC50 (HCoV-229E 3CLpro): 71 nM | IC50 (MERS-CoV 3CLpro): 187 nM | IC50 (SARS-CoV 3CLpro): 26 nM

CCC(CC)[C@H](NC(=O)C(F)F)C(=O)N1C[C@H]2[C@@H]([C@H]1C(=O)NN(C[C@@H]1CCCNC1=O)C(=O)[C@H](F)Cl)C2(C)C [Example 173, N-[(1S)-1-[(1R,2S,5S)-2-[[[(2R)-2-chloro-2-fluoro-acetyl]-[[(3S)-2-oxo-3-piperidyl]methyl]amino]carbamoyl]-6,6-dimethyl-3-azabicyclo[3.1.0]hexane-3-carbonyl]-2-ethyl-butyl]-2,2-difluoro-acetamide]
IC50 (SARS-CoV-2 3CLpro): 13 nM | IC50 (HCoV-229E 3CLpro): 27 nM | IC50 (MERS-CoV 3CLpro): 175 nM | IC50 (SARS-CoV 3CLpro): 18 nM

CCC(CC)[C@H](NC(=O)C(F)F)C(=O)N1C[C@@H]2CCC[C@@H]2[C@H]1C(=O)NN(C[C@@H]1CCCNC1=O)C(=O)[C@H](F)Cl [Example 174, N-[(1S)-1-[(3S,3aS,6aR)-3-[[[(2R)-2-chloro-2-fluoro-acetyl]-[[(3S)-2-oxo-3-piperidyl]methyl]amino]carbamoyl]-3,3a,4,5,6,6a-hexahydro-1H-cyclopenta[c]pyrrole-2-carbonyl]-2-ethyl-butyl]-2,2-difluoro-acetamide]
IC50 (SARS-CoV-2 3CLpro): 10 nM | IC50 (HCoV-229E 3CLpro): 29 nM | IC50 (MERS-CoV 3CLpro): 123 nM | IC50 (SARS-CoV 3CLpro): 12 nM

CCC(C)(C)[C@H](NC(=O)C(F)F)C(=O)N1C[C@@H]2CCC[C@@H]2[C@H]1C(=O)NN(C[C@@H]1CCCNC1=O)C(=O)[C@H](F)Cl [Example 175, N-[(1S)-1-[(3S,3aS,6aR)-3-[[[(2R)-2-chloro-2-fluoro-acetyl]-[[(3S)-2-oxo-3-piperidyl]methyl]amino]carbamoyl]-3,3a,4,5,6,6a-hexahydro-1H-cyclopenta[c]pyrrole-2-carbonyl]-2,2-dimethyl-butyl]-2,2-difluoro-acetamide]
IC50 (SARS-CoV-2 3CLpro): 10 nM | IC50 (HCoV-229E 3CLpro): 37 nM | IC50 (MERS-CoV 3CLpro): 105 nM | IC50 (SARS-CoV 3CLpro): 15 nM

CC[C@H](C)[C@H](NC(=O)C(F)F)C(=O)N1C[C@H]2[C@@H]([C@H]1C(=O)NN(C[C@@H]1CCCNC1=O)C(=O)[C@H](F)Cl)C2(C)C [Example 176, N-[(1S,2S)-1-[(1R,2S,5S)-2-[[[(2R)-2-chloro-2-fluoro-acetyl]-[[(3S)-2-oxo-3-piperidyl]methyl]amino]carbamoyl]-6,6-dimethyl-3-azabicyclo[3.1.0]hexane-3-carbonyl]-2-methyl-butyl]-2,2-difluoro-acetamide]
IC50 (SARS-CoV-2 3CLpro): 11 nM | IC50 (HCoV-229E 3CLpro): 28 nM | IC50 (MERS-CoV 3CLpro): 96 nM | IC50 (SARS-CoV 3CLpro): 16 nM

CC1(C)[C@@H]2[C@@H](C(=O)NN(C[C@@H]3CCNC3=O)C(=O)[C@H](F)Cl)N(C(=O)c3cc(C(F)(F)F)cc(C(F)(F)F)c3)C[C@@H]21 [Example 177, (1R,2S,5S)-3-[3,5-bis(trifluoromethyl)benzoyl]-N′-[(2R)-2-chloro-2-fluoro-acetyl]-6,6-dimethyl-N′—[[(3S)-2-oxopyrrolidin-3-yl]methyl]-3-azabicyclo[3.1.0]hexane-2-carbohydrazide]
IC50 (SARS-CoV-2 3CLpro): 147 nM | IC50 (HCoV-229E 3CLpro): 138 nM | IC50 (MERS-CoV 3CLpro): 278 nM | IC50 (SARS-CoV 3CLpro): 232 nM

CC1(C)[C@@H]2[C@@H](C(=O)NN(C[C@@H]3CCNC3=O)C(=O)[C@H](F)Cl)N(C(=O)Cc3cc(C(F)(F)F)cc(C(F)(F)F)c3)C[C@@H]21 [Example 178, (1R,2S,5S)-3-[2-[3,5-bis(trifluoromethyl)phenyl]acetyl]-N′-[(2R)-2-chloro-2-fluoro-acetyl]-6,6-dimethyl-N′—[[(3S)-2-oxopyrrolidin-3-yl]methyl]-3-azabicyclo[3.1.0]hexane-2-carbohydrazide]
IC50 (SARS-CoV-2 3CLpro): 148 nM | IC50 (HCoV-229E 3CLpro): 65 nM | IC50 (MERS-CoV 3CLpro): 264 nM | IC50 (SARS-CoV 3CLpro): 259 nM

CC1(C)[C@@H]2[C@@H](C(=O)NN(C[C@@H]3CCNC3=O)C(=O)[C@H](F)Cl)N(C(=O)c3cc(F)cc(C(F)(F)F)c3)C[C@@H]21 [Example 179, (1R,2S,5S)—N′-[(2R)-2-chloro-2-fluoro-acetyl]-3-[3-fluoro-5-(trifluoromethyl)benzoyl]-6,6-dimethyl-N′—[[(3S)-2-oxopyrrolidin-3-yl]methyl]-3-azabicyclo[3.1.0]hexane-2-carbohydrazide]
IC50 (SARS-CoV-2 3CLpro): 201 nM | IC50 (HCoV-229E 3CLpro): 93 nM | IC50 (MERS-CoV 3CLpro): 315 nM | IC50 (SARS-CoV 3CLpro): 222 nM

CC1(C)[C@@H]2[C@@H](C(=O)NN(C[C@@H]3CCNC3=O)C(=O)[C@H](F)Cl)N(C(=O)/C=C/c3cc(C(F)(F)F)cc(C(F)(F)F)c3)C[C@@H]21 [Example 180, (1R,2S,5S)-3-[(E)-3-[3,5-bis(trifluoromethyl)phenyl]prop-2-enoyl]-N′-[(2R)-2-chloro-2-fluoro-acetyl]-6,6-dimethyl-N′—[[(3S)-2-oxopyrrolidin-3-yl]methyl]-3-azabicyclo[3.1.0]hexane-2-carbohydrazide]
IC50 (SARS-CoV-2 3CLpro): 491 nM | IC50 (HCoV-229E 3CLpro): 241 nM | IC50 (MERS-CoV 3CLpro): 657 nM | IC50 (SARS-CoV 3CLpro): 786 nM

CC1(C)[C@@H]2[C@@H](C(=O)NN(C[C@@H]3CCNC3=O)C(=O)[C@H](F)Cl)N(C(=O)/C=C/c3cc(F)cc(F)c3)C[C@@H]21 [Example 181, (1R,2S,5S)—N′-[(2R)-2-chloro-2-fluoro-acetyl]-3-[(E)-3-(3,5-difluorophenyl)prop-2-enoyl]-6,6-dimethyl-N′—[[(3S)-2-oxopyrrolidin-3-yl]methyl]-3-azabicyclo[3.1.0]hexane-2-carbohydrazide]
IC50 (SARS-CoV-2 3CLpro): 208 nM | IC50 (HCoV-229E 3CLpro): 48 nM | IC50 (MERS-CoV 3CLpro): 363 nM | IC50 (SARS-CoV 3CLpro): 252 nM
